Data taken from US20120244619A1, “COMPOSITION FOR PROMOTING DIFFERENTIATION OF PLURIPOTENT STEM CELLS INTO CARDIAC MUSCLE CELLS WHICH COMPRISES NITROVIN” (KYOTO UNIVERSITY, priority 2009, published 2012).

Legend:
Format in all cases: cell-based
[1] = system: CMK 6.4 cynomolgus monkey ES cells; experiment: Screening of agents which promote cardiac muscle cell differentiation of monkey ES cells (α-MHC promoter-GFP, HCS); conditions: 96-well, about 1-5 μM compound/well added day 6-14, read at day 14 of culture
Description: As described in FIG. 1, screening of agents which promote cardiac muscle cell differentiation of monkey ES cells was performed. A vector expressing green fluorescent protein (GFP) under control of a promoter of a-MHC gene, a marker of cardiac muscle cell differentiation, was introduced into monkey ES cell line (CMK 6.4 cynomolgus monkey ES cells) and the cells were seeded on 96-well culture plates (Greiner/655090: 96 well FIA black plate) in 5.0×10^2 cells/well, and cultured for 14 days in a differentiation medium for cardiac muscle cell differentiation (200 ml IMDM (Sigma 13390) containing 50 ml bovine fetal serum (GIBCO 10099-141), 2.5 ml MEM non-essential amino acid solution (Sigma M7145), 2.5 ml penicillin-streptomycin (GIBCO 15140), 2.5 ml 200 mM L-glutamine, 2 μl 2-mercaptoethanol (Sigma M7522), 255 μl 5N NaOH 255 μl). During day 6-14 of culture, 9,600 library compounds were added into separate wells (about 1-5 μM compound/well). Then, at day 14 of culture, GFP expression was determined by using HCS (high contents screening) system (Molecular device/MetaMorph imaging system). As a result, GFP fluorescence intensity was high in the wells added with nitrovin (FIG. 2).

[2] = system: CMK 6.4 cynomolgus monkey ES cells; experiment: Effect of nitrovin for promoting cardiac muscle cell differentiation of monkey ES cells
Description: As described in Example 1, a vector expressing green fluorescent protein (GFP) was introduced into monkey ES cell line (CMK 6.4 cynomolgus monkey ES cells). The monkey ES cells were seeded and cultured on 6-well culture plates (Asahi Glass/5816-006: Ezview culture plate) in 4.0×10^6 cells/well. The culture medium was the same as described in Example 1. At day 6 of culture, nitrovin was added at a final concentration of 1 μM, 5 μM, or 20 μM. At day 18 of culture, fluorescence intensity of GFP and number of beating colonies of cardiac muscle cells were determined. When nitrovin was added, the fluorescence intensity and number of beating colonies increased up to about 5 times and about 10 times higher, respectively (FIGS. 3-1 and 3-2).

[3] = system: human ES cell line (Kh−1); experiment: Effect of nitrovin for promoting cardiac muscle cell differentiation of human ES cells; conditions: nitrovin 1, 5 or 20 μM added at day 6, read at day 18
Description: As described in Example 1, a vector expressing green fluorescent protein (GFP) was introduced into human ES cell line (Kh−1). The human ES cells were seeded and cultured on 6-well culture plates (Asahi Glass/5816-006: Ezview culture plate) in 1.2×10^6 cells/well. The culture medium was the same as described in Example 1. At day 6 of culture, nitrovin was added at a final concentration of 1 μM, 5 μM, or 20 μM. At day 18 of culture, fluorescence intensity of GFP was determined.

[4] = system: CMK 6.4 cynomolgus monkey ES cells; experiment: Comparison of nitrovin and cytokines in cardiac muscle cell differentiation of monkey ES cells; conditions: nitrovin 5 μM day 6-14; cytokines (bFGF, BMP4, VEGF, DKK1, Activin A) day 1-14; read at day 18
Excerpt: Nitrovin and a mixture of cytokines (bFGF, BMP4, VEGF, DKK1, and Activin A) known as a promoter of cardiac muscle cell differentiation were compared as to increase of GFP fluorescence intensity, number of beating colonies of cardiac muscle cells, and expression of Troponin T, a marker of cardiac muscle cell differentiation.
As described in Example 1, a vector expressing green fluorescent protein (GFP) was introduced into monkey ES cell line (CMK 6.4 cynomolgus monkey ES cells). The culture medium was the same as described in Example 1. The monkey ES cells were seeded on 6-well culture plates and nitrovin (final concentration: 5 μM) or a mixture of cytokines (bFGF, BMP4, VEGF, DKK1, and Activin A) (final concentration: 5 ng/ml, 10 ng/ml, 10 ng/ml, 150 ng/ml, and 3 ng/ml, respectively) was added during day 6-14 of culture (nitrovin) or day 1-14 of culture (cytokines).

[5] = nitrovin 1, 5 or 20 μM added at day 6, read at day 18, maximal increase vs control (DMSO)

## N=C(N)NN=C(/C=C/c1ccc([N+](=O)[O-])o1)/C=C/c1ccc([N+](=O)[O-])o1 [nitrovin]
[1]
  GFP fluorescence intensity (GFP expression under α-MHC promoter): high
[2]; among 1, 5 and 20 μM, GFP fluorescence intensity and beating colonies at day 18
  most effective final concentration: 5 µM
[2]; [5]
  increase of GFP fluorescence intensity: about 5 times
  increase of number of beating colonies of cardiac muscle cells: about 10 times
[3]
  GFP fluorescence intensity: increase of GFP fluorescence intensity induced by nitrovin was also observed
[4]
  GFP fluorescence intensity compared to the mixture of cytokines: highly effective
  expression level of Troponin T compared to the mixture of cytokines: highly effective
  number of beating colonies compared to the mixture of cytokines: highly effective
